In patent publication US20110098296A1, “Thiazole And Oxazole Kinase Inhibitors” (priority 2007, published 2011):
Where a name gives a salt, the structure may show the parent alone.

Columns and labels:
ErbB2 = target: T1, ErbB2 (Homo sapiens, UniProt P04626); experiment: ErbB-2 substrate phosphorylation assay (HTRF); type: biochemical; settings: Method (A): Enzyme Mix incubated with compound at 20° C. for 1 hr, reaction started by adding Substrate Mix
T1 construct: made in house; host or cells: baculovirus expression system
T1 sequence (P04626 23-1255): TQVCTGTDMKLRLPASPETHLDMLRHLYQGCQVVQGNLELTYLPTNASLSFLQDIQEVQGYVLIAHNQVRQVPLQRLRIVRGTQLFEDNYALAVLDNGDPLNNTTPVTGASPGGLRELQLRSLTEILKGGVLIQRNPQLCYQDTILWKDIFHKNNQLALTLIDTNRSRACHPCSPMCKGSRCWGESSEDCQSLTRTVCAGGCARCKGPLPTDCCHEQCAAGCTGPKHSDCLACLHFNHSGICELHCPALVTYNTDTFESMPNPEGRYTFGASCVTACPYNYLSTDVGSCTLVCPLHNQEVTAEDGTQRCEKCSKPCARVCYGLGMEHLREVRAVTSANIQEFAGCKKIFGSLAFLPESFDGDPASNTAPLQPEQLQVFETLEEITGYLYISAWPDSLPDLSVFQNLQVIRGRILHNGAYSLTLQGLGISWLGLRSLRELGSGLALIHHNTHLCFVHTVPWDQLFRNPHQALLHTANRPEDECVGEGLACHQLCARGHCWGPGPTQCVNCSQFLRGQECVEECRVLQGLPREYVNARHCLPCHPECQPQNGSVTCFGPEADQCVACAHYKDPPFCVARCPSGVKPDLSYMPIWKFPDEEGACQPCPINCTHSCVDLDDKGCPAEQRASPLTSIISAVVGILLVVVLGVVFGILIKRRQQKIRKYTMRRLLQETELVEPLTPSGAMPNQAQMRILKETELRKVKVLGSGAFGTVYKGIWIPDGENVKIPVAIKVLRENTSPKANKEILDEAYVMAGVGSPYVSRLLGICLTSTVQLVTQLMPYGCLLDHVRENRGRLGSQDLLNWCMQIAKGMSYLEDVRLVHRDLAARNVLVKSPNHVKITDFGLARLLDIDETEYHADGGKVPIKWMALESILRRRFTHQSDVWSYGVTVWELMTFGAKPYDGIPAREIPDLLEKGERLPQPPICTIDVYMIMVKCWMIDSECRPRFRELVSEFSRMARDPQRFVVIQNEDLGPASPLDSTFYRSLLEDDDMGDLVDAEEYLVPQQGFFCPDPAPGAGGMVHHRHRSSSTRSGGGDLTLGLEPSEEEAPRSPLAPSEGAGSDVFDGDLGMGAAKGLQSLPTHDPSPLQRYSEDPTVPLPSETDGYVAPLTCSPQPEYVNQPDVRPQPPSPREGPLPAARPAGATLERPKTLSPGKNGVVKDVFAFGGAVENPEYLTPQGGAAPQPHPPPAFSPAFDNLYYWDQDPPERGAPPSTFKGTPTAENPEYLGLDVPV
How it was run: (§1)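 Baculovirus-expressed kinase (0.8 nM EGFR or 10 nM ErbB2 in enzyme mix) with Peptide C 0.8 μM and ATP 20 μM (substrate-mix levels), MOPS pH 7.5, MnCl2; 90 min, 20 °C, HTRF anti-phosphotyrosine. Method A adds 1 h enzyme–compound preincubation; B none. pIC50, final compound 0.00027–47.6 μM.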

Colo205 tumor cells = experiment: Method C: Cell Growth Inhibition Assay (CellTiter-Glo), Colo205; type: cell-based; settings: Homo sapiens, COLO 205, 72 h, 3 days, 4-parameter fit
How it was run: (§2)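 Growth inhibition is expressed as the concentration giving 50% inhibition relative to vehicle controls, derived from a 4-parameter fit. Tumor cells plated at 500 per well were exposed for 3 days to compound (0.2% DMSO) before total ATP was quantified by CellTiter-Glo.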

HN5 tumor cells = experiment: Method C: Cell Growth Inhibition Assay (CellTiter-Glo), HN5; type: cell-based; settings: Homo sapiens, 72 h, 3 days, 4-parameter fit
How it was run: (§3)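 Cells were seeded at 500 per well and dosed the next day with nine serial 1:3 compound dilutions (0.2% DMSO final), then grown 3 days at 37° C, 5% CO2. ATP was measured by CellTiter-Glo luminescence, and IC50 was interpolated by 4-parameter fit of percent inhibition versus DMSO controls.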

A375P F11s tumor cells = experiment: Method C: Cell Growth Inhibition Assay (CellTiter-Glo), A375P F11s; type: cell-based; settings: Homo sapiens, 72 h, 3 days, 4-parameter fit
How it was run: as §3

HT-29 tumor cells = experiment: Method C: Cell Growth Inhibition Assay (CellTiter-Glo), HT-29; type: cell-based; settings: Homo sapiens, HT-29, 72 h, 3 days, 4-parameter fit
How it was run: as §3

SK-MEL-3 tumor cells = experiment: Method C: Cell Growth Inhibition Assay (CellTiter-Glo), SK-MEL-3; type: cell-based; settings: Homo sapiens, SK-MEL3, 72 h, 3 days, 4-parameter fit
How it was run: as §2

EGFR = target: T2, EGFR (Homo sapiens, UniProt P00533); experiment: EGFR substrate phosphorylation assay (HTRF); type: biochemical; settings: Method (A): Enzyme Mix incubated with compound at 20° C. for 1 hr, reaction started by adding Substrate Mix
T2 construct: made in house; host or cells: baculovirus expression system
T2 sequence (P00533 25-1210): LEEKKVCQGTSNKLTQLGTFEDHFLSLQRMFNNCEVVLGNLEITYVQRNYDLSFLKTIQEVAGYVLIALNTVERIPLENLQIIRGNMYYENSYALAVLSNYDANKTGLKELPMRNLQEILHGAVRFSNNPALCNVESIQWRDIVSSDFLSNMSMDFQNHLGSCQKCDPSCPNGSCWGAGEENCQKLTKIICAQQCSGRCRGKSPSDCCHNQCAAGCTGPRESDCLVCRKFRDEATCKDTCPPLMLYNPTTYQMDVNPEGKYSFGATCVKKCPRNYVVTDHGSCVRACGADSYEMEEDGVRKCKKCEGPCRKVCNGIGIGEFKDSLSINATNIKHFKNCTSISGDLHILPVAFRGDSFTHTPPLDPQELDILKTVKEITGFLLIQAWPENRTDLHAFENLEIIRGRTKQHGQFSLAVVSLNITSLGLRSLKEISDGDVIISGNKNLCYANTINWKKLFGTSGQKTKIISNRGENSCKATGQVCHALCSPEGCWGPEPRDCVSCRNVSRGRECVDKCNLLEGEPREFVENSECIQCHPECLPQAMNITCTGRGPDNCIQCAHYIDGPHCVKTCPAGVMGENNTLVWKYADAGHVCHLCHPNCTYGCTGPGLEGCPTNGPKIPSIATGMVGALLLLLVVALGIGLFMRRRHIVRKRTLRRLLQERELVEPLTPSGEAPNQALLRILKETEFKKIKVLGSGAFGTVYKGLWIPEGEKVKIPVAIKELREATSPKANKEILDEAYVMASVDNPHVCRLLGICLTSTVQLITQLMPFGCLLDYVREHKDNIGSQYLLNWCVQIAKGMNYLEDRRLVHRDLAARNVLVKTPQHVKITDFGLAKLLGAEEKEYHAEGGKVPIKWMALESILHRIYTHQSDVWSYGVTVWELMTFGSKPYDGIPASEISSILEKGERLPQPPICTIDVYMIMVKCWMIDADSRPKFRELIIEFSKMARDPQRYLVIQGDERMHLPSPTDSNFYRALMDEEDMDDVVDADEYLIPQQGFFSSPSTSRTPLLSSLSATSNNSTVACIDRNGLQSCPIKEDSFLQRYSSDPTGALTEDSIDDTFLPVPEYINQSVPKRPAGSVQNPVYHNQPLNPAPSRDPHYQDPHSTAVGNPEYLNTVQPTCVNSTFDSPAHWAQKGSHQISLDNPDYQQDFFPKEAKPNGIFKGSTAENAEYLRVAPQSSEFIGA
How it was run: as §1

BT474 tumor cells = experiment: Method C: Cell Growth Inhibition Assay (CellTiter-Glo), BT474; type: cell-based; settings: Homo sapiens, BT-474, 72 h, 3 days, 4-parameter fit
SK-MEL-28 tumor cells = experiment: Method C: Cell Growth Inhibition Assay (CellTiter-Glo), SK-MEL-28; type: cell-based; settings: Homo sapiens, SK-MEL-28, 72 h, 3 days, 4-parameter fit
How it was run: as §3

IC50 (ErbB2) [nM]	IC50 (Colo205 tumor cells) [nM]	IC50 (HN5 tumor cells) [nM]	IC50 (A375P F11s tumor cells) [nM]	IC50 (HT-29 tumor cells) [nM]	IC50 (SK-MEL-3 tumor cells) [nM]	IC50 (EGFR) [nM]	IC50 (BT474 tumor cells) [nM]	IC50 (SK-MEL-28 tumor cells) [nM]	Compound
< 100	> 1000	100 to 1000	> 1000	100 to 1000	> 1000	< 100	100 to 1000	> 1000	Cc1nc(-c2cccc(NC(=O)c3ccc(F)cc3)c2)c(-c2ccnc(Nc3ccc(OCCN(C)C)c(Cl)c3)n2)s1 [Example 134, N-[3-(5-{2-[(3-Chloro-4-{[2-(dimethylamino)ethyl]oxy}phenyl)amino]-4-pyrimidinyl}-2-methyl-1,3-thiazol-4-yl)phenyl]-4-fluorobenzamide]
< 100	100 to 1000	< 100	100 to 1000	100 to 1000	100 to 1000	< 100	< 100	100 to 1000	CN(C)CCOc1ccc(Nc2nccc(-c3sc(N)nc3-c3cccc(NC(=O)c4c(F)cccc4F)c3)n2)cc1Cl [Example 5, N-(3-{2-Amino-5-[2-({3-chloro-4-[2-(dimethylamino)ethoxy]-phenyl}amino)pyrimidin-4-yl]-1,3-thiazol-4-yl}phenyl)-2,6-difluorobenzamide-formic acid]
< 100	100 to 1000	100 to 1000	> 1000	100 to 1000	> 1000	< 100	100 to 1000	100 to 1000	CN1CCc2ccc(Nc3nccc(-c4sc(N5CCCC5)nc4-c4cccc(NC(=O)c5c(F)cccc5F)c4)n3)cc2C1 [Example 44, 2,6-Difluoro-N-{3-[5-{2-[(2-methyl-1,2,3,4-tetrahydro-7-isoquinolinyl)amino]-4-pyrimidinyl}-2-(1-pyrrolidinyl)-1,3-thiazol-4-yl]phenyl}benzamide]

Second part, the compound before the results:

Compound	IC50 (ErbB2) [nM]	IC50 (Colo205 tumor cells) [nM]	IC50 (HN5 tumor cells) [nM]	IC50 (A375P F11s tumor cells) [nM]	IC50 (HT-29 tumor cells) [nM]	IC50 (SK-MEL-3 tumor cells) [nM]	IC50 (EGFR) [nM]	IC50 (BT474 tumor cells) [nM]	IC50 (SK-MEL-28 tumor cells) [nM]
COc1ccc(Nc2nccc(-c3sc(N)nc3-c3cccc(NC(=O)c4c(F)cccc4F)c3)n2)cc1N1CCN(C)CC1 [Example 11, N-{3-[2-Amino-5-(2-{[4-(methyloxy)-3-(4-methyl-1-piperazinyl)phenyl]amino}-4-pyrimidinyl)-1,3-thiazol-4-yl]phenyl}-2,6-difluorobenzamide trifluoroacetate]	< 100	100 to 1000	< 100	100 to 1000	100 to 1000	100 to 1000	< 100	< 100	< 100
COc1ccc(Nc2nccc(-c3scnc3-c3cccc(NC(=O)c4c(F)cccc4F)c3)n2)cc1N1CCN(C)CC1 [Example 93, 2,6-Difluoro-N-{3-[5-(2-{[4-(methyloxy)-3-(4-methyl-1-piperazinyl)phenyl]amino}-4-pyrimidinyl)-1,3-thiazol-4-yl]phenyl}benzamide]	< 100	100 to 1000	< 100	100 to 1000	100 to 1000	100 to 1000	< 100	< 100	100 to 1000
Cc1nc(-c2cccc(NC(=O)c3c(F)cccc3F)c2)c(-c2ccnc(Nc3ccc(OC4CCN(C)CC4)c(F)c3)n2)s1 [Example 108, 2,6-Difluoro-N-(3-{5-[2-({3-fluoro-4-[(1-methyl-4-piperidinyl)oxy]phenyl}amino)-4-pyrimidinyl]-2-methyl-1,3-thiazol-4-yl}phenyl)benzamide]	< 100	100 to 1000	100 to 1000	100 to 1000	100 to 1000	> 1000	< 100	< 100	> 1000
NS(=O)(=O)CCc1cccc(Nc2nccc(-c3scnc3-c3cccc(NC(=O)c4c(F)cccc4F)c3)n2)c1 [Example 95, N-(3-{5-[2-({3-[2-(Aminosulfonyl)ethyl]phenyl}amino)-4-pyrimidinyl]-1,3-thiazol-4-yl}phenyl)-2,6-difluorobenzamide]	< 100	> 1000	< 100	100 to 1000	100 to 1000	> 1000	< 100	< 100	> 1000
